ChEMBL document CHEMBL5137134, “Developing the Natural Prenylflavone Artocarpin from Artocarpus hirsutus as a Potential Lead Targeting Pathogenic, Multidrug-Resistant Staphylococcus aureus, Persisters and Biofilms with No Detectable Resistance” (J Nat Prod, 2022)
≈ marks a conversion by molar mass, not a printed value. Calls of active or inactive are those of the source. The calls are words filed in the database; no cut-off is given here.

Tests used:
Staphylococcus aureus [1] = assay: Antibacterial activity against Staphylococcus aureus ATCC 29213 infected in mouse J774A.1 cells assessed as reduction in intracellular bacterial cells at 5 times MIC incubated for 24 hrs followed by re-plating on TSA plate and measured after 18 to 24 hrs; assay type: functional
Staphylococcus aureus [2] = assay: Antibacterial activity against methicillin/levoflaxacin/meropenem resistant Staphylococcus aureus NRS 193 assessed as reduction in bacterial growth incubated for 16 to 18 hrs by broth microdilution method; assay type: functional; details: time 16-18 hrs
Staphylococcus aureus [3] = assay: Synergistic antibacterial activity against Staphylococcus aureus ATCC 29213 assessed as reduction in bacterial growth incubated for 24 hrs in presence of levofloxacin by checkerboard method; assay type: functional
Staphylococcus aureus [4] = assay: Antibacterial activity against methicillin/levoflaxacin/vancomycin/meropenem/gentamycin/spectinomycin/teicoplanin resistant Staphylococcus aureus VRS 12 assessed as reduction in bacterial growth incubated for 16 to 18 hrs by broth microdilution method; assay type: functional; details: time 16-18 hrs
Staphylococcus aureus [5] = assay: Bactericidal activity against Staphylococcus aureus ATCC 29213 assessed as increase in extracellular ATP level after 1 hr by ATP bioluminescence assay; assay type: functional, organism-based; details: DDE = dose-dependent effect
Staphylococcus aureus [6] = assay: Antibacterial activity against methicillin/levoflaxacin/vancomycin/meropenem/gentamycin/spectinomycin/teicoplanin resistant Staphylococcus aureus VRS 1 assessed as reduction in bacterial growth incubated for 16 to 18 hrs by broth microdilution method; assay type: functional; details: time 16-18 hrs
Staphylococcus aureus [7] = assay: Synergistic antibacterial activity against Staphylococcus aureus ATCC 29213 assessed as reduction in bacterial growth incubated for 24 hrs in presence of vancomycin by checkerboard method; assay type: functional
Acinetobacter baumannii = assay: Antibacterial activity against Acinetobacter baumannii BAA 1605 assessed as reduction in bacterial growth incubated for 16 to 18 hrs by broth microdilution method; assay type: functional; details: time 16-18 hrs
Staphylococcus aureus [8] = assay: Antibacterial activity against gentamycin/linezolid/methicillin/trimeth/sulfa resistant Staphylococcus aureus NRS 119 assessed as reduction in bacterial growth incubated for 16 to 18 hrs by broth microdilution method; assay type: functional; details: time 16-18 hrs
Staphylococcus aureus [9] = assay: Synergistic antibacterial activity against Staphylococcus aureus ATCC 29213 assessed as fractional inhibitory concentration incubated for 24 hrs in presence of vancomycin by checkerboard method; assay type: functional
Staphylococcus aureus [10] = assay: Synergistic antibacterial activity against Staphylococcus aureus ATCC 29213 assessed as reduction in bacterial growth incubated for 24 hrs in presence of daptomycin by checkerboard method; assay type: functional
Staphylococcus aureus [11] = assay: Post antibiotic effect against Staphylococcus aureus ATCC 29213 assessed as time required for 1 log10 increase in CFU at 1 time MIC incubated for 1 hr followed by replacement with drug free medium and measured every 1 hr (reference value: 2 hrs); assay type: functional
Staphylococcus aureus [12] = assay: Bactericidal activity against Staphylococcus aureus ATCC 29213 assessed as visible cell destruction at 2.5 times MIC after 30 mins by scanning electron microscopy analysis; assay type: functional, organism-based
Staphylococcus aureus [13] = assay: Antibiofilm activity against Staphylococcus aureus ATCC 29213 assessed as reduction in preformed bacterial biofilm mass at 1 time MIC incubated for 24 hrs by crystal violet staining based microtiter plate reader assay; assay type: functional; design: scale not given: the % may be the effect or the level left
Staphylococcus aureus [14] = assay: Antibacterial activity against methicillin/levoflaxacin/meropenem resistant Staphylococcus aureus NRS 191 assessed as reduction in bacterial growth incubated for 16 to 18 hrs by broth microdilution method; assay type: functional; details: time 16-18 hrs
Staphylococcus aureus [15] = assay: Post antibiotic effect against Staphylococcus aureus ATCC 29213 assessed as time required for 1 log10 increase in CFU at 10 times MIC incubated for 1 hr followed by replacement with drug free medium and measured every 1 hr (reference value: 2 hrs); assay type: functional
Pseudomonas aeruginosa = assay: Antibacterial activity against Pseudomonas aeruginosa ATCC 27853 assessed as reduction in bacterial growth incubated for 16 to 18 hrs by broth microdilution method; assay type: functional; details: time 16-18 hrs
Staphylococcus aureus [16] = assay: Bactericidal activity against Staphylococcus aureus ATCC 29213 assessed as increase in dead bacterial cells at 2.5 times MIC after 30 mins by confocal laser scanning microscopy analysis; assay type: functional, organism-based
Enterococcus [17] = assay: Antibacterial activity against Enterococcus NR 31903 assessed as reduction in bacterial growth incubated for 16 to 18 hrs by broth microdilution method; assay type: functional; details: time 16-18 hrs
Escherichia coli = assay: Antibacterial activity against Escherichia coli ATCC 25922 assessed as reduction in bacterial growth incubated for 16 to 18 hrs by broth microdilution method; assay type: functional; details: time 16-18 hrs
Staphylococcus aureus [18] = assay: Synergistic antibacterial activity against Staphylococcus aureus ATCC 29213 assessed as reduction in bacterial growth incubated for 24 hrs in presence of minocycline by checkerboard method; assay type: functional
Staphylococcus aureus [19] = assay: Synergistic antibacterial activity against Staphylococcus aureus ATCC 29213 assessed as fractional inhibitory concentration incubated for 24 hrs in presence of rifampicin by checkerboard method; assay type: functional
Enterococcus [20] = assay: Antibacterial activity against vancomycin/methicillin/levoflaxacin/minocycline resistant Enterococcus NR 31903 assessed as reduction in bacterial growth incubated for 16 to 18 hrs by broth microdilution method; assay type: functional; details: time 16-18 hrs
Staphylococcus aureus [21] = assay: Antibacterial activity against methicillin/levoflaxacin/meropenem/erythromycin resistant Staphylococcus aureus NRS 192 assessed as reduction in bacterial growth incubated for 16 to 18 hrs by broth microdilution method; assay type: functional; details: time 16-18 hrs
Staphylococcus aureus [22] = assay: Antibacterial activity against chloramphenicol resistant Staphylococcus aureus NRS 129 assessed as reduction in bacterial growth incubated for 16 to 18 hrs by broth microdilution method; assay type: functional; details: time 16-18 hrs
Staphylococcus aureus [23] = assay: Bactericidal activity against Staphylococcus aureus ATCC 29213 assessed as decrease in intracellular ATP level after 1 hr by ATP bioluminescence assay; assay type: functional, organism-based; details: DDE = dose-dependent effect
Staphylococcus aureus [24] = assay: Bactericidal activity against Staphylococcus aureus ATCC 29213 assessed as inhibition of bacterial regrowth at 10 time MIC after 24 hrs by time kill assay; assay type: functional, organism-based
Enterococcus [25] = assay: Antibacterial activity against vancomycin/methicillin/levoflaxacin/minocycline resistant Enterococcus NR 31912 assessed as reduction in bacterial growth incubated for 16 to 18 hrs by broth microdilution method; assay type: functional; details: time 16-18 hrs
Enterococcus [26] = assay: Antibacterial activity against vancomycin/methicillin/levoflaxacin/minocycline resistant Enterococcus NR 31909 assessed as reduction in bacterial growth incubated for 16 to 18 hrs by broth microdilution method; assay type: functional; details: time 16-18 hrs

Q: With `COc1cc2oc(-c3ccc(O)cc3O)c(CC=C(C)C)c(=O)c2c(O)c1/C=C/C(C)C` [ARTOCARPIN] as the compound, how does the Activity (Staphylococcus aureus [1]) read?
A: Its Activity is 3.25 log10CFU/ml.

Q: What about the MIC (Staphylococcus aureus [2]) of the same compound?
A: Its MIC is 4 µg/mL (≈ 9.16 µM).

Q: And the MIC (Staphylococcus aureus [3])?
A: Its MIC is 2 µg/mL.

Q: What about the MIC (Staphylococcus aureus [4]) of the same compound?
A: The MIC was 4 µg/mL (≈ 9.16 µM).

Q: What about the Activity (Staphylococcus aureus [5]) of the same compound?
A: Its Activity is “Dde”.

Q: And the MIC (Staphylococcus aureus [6])?
A: The MIC was 4 µg/mL (≈ 9.16 µM).

Q: And the MIC (Staphylococcus aureus [7])?
A: Its MIC is 2 µg/mL.

Q: And the MIC (Acinetobacter baumannii)?
A: The MIC was greater than 128 µg/mL.

Q: And the MIC (Staphylococcus aureus [8])?
A: The MIC was 4 µg/mL (≈ 9.16 µM).

Q: What about the FIC (Staphylococcus aureus [9]) of the same compound?
A: The FIC was 0.5.

Q: What about the MIC (Staphylococcus aureus [10]) of the same compound?
A: Its MIC is 1 µg/mL.

Q: What about the Time (Staphylococcus aureus [11]) of the same compound?
A: The Time was 5 h.

Q: And the Activity (Staphylococcus aureus [12])?
A: Its Activity is “Active”.

Q: What about the Activity (Staphylococcus aureus [13]) of the same compound?
A: The Activity was 34%.

Q: And the MIC (Staphylococcus aureus [14])?
A: Its MIC is 4 µg/mL (≈ 9.16 µM).

Q: And the Time (Staphylococcus aureus [15])?
A: Its Time is 24 h.

Q: What about the MIC (Pseudomonas aeruginosa) of the same compound?
A: Its MIC is greater than 128 µg/mL.

Q: And the Activity (Staphylococcus aureus [16])?
A: The Activity was “Active”.

Q: What about the MIC (Enterococcus [17]) of the same compound?
A: Its MIC is 2 µg/mL (≈ 4.58 µM).

Q: And the MIC (Escherichia coli)?
A: Its MIC is greater than 128 µg/mL.

Q: What about the MIC (Staphylococcus aureus [18]) of the same compound?
A: The MIC was 1 µg/mL.

Q: And the FIC (Staphylococcus aureus [19])?
A: Its FIC is 0.5.

Q: What about the MIC (Enterococcus [20]) of the same compound?
A: The MIC was 2 µg/mL (≈ 4.58 µM).

Q: What about the MIC (Staphylococcus aureus [21]) of the same compound?
A: Its MIC is 4 µg/mL (≈ 9.16 µM).

Q: And the MIC (Staphylococcus aureus [22])?
A: Its MIC is 4 µg/mL (≈ 9.16 µM).

Q: What about the Activity (Staphylococcus aureus [23]) of the same compound?
A: The Activity was “Dde”.

Q: What about the Activity (Staphylococcus aureus [24]) of the same compound?
A: Its Activity is “Active”.

Q: What about the MIC (Enterococcus [25]) of the same compound?
A: The MIC was 2 µg/mL (≈ 4.58 µM).

Q: And the MIC (Enterococcus [26])?
A: The MIC was 1 µg/mL (≈ 2.29 µM).
